{
  "source": "patent US20210401931A1",
  "about": "“METHODS AND MATERIALS FOR TREATING CANCER” (Mayo Foundation for Medical Education and Research, priority 2018, published 2021)",
  "molecules": {"B1": {"name": "p52 (other, human, UniProt Q00653 1-454, looked up)", "chain": "MESCYNPGLDGIIEYDDFKLNSSIVEPKEPAPETADGPYLVIVEQPKQRGFRFRYGCEGPSHGGLPGASSEKGRKTYPTVKICNYEGPAKIEVDLVTHSDPPRAHAHSLVGKQCSELGICAVSVGPKDMTAQFNNLGVLHVTKKNMMGTMIQKLQRQRLRSRPQGLTEAEQRELEQEAKELKKVMDLSIVRLRFSAFLRASDGSFSLPLKPVISQPIHDSKSPGASNLKISRMDKTAGSVRGGDEVYLLCDKVQKDDIEVRFYEDDENGWQAFGDFSPTDVHKQYAIVFRTPPYHKMKIERPVTVFLQLKRKRGGDVSDSKQFTYYPLVEDKEEVQRKRRKALPTFSQPFGGGSHMGGGSGGAAGGYGGAGGGGSLGFFPSSLAYSPYQSGAGPMGCYPGGGGGAQMAATVPSRDSGEEAAEPSAPSRTPQCEPQAPEMLQRAREYNARLFGLA"}, "B2": {"name": "c-Rel (other, human, UniProt Q04864 2-619, looked up)", "chain": "ASGAYNPYIEIIEQPRQRGMRFRYKCEGRSAGSIPGEHSTDNNRTYPSIQIMNYYGKGKVRITLVTKNDPYKPHPHDLVGKDCRDGYYEAEFGQERRPLFFQNLGIRCVKKKEVKEAIITRIKAGINPFNVPEKQLNDIEDCDLNVVRLCFQVFLPDEHGNLTTALPPVVSNPIYDNRAPNTAELRICRVNKNCGSVRGGDEIFLLCDKVQKDDIEVRFVLNDWEAKGIFSQADVHRQVAIVFKTPPYCKAITEPVTVKMQLRRPSDQEVSESMDFRYLPDEKDTYGNKAKKQKTTLLFQKLCQDHVETGFRHVDQDGLELLTSGDPPTLASQSAGITVNFPERPRPGLLGSIGEGRYFKKEPNLFSHDAVVREMPTGVSSQAESYYPSPGPISSGLSHHASMAPLPSSSWSSVAHPTPRSGNTNPLSSFSTRTLPSNSQGIPPFLRIPVGNDLNASNACIYNNADDIVGMEASSMPSADLYGISDPNMLSNCSVNMMTTSSDSMGETDNPRLLSMNLENPSCNSVLDPRDLRQLHQMSSSSMSAGANSNTTVFVSQSDAFEGSDFSCADNSMINESGPSNSTNPNSHGFVQDSQYSGIGSMQNEQLSDSFPYEFFQV"}, "B3": {"name": "RelB (other, human, UniProt Q01201 1-579, looked up)", "chain": "MLRSGPASGPSVPTGRAMPSRRVARPPAAPELGALGSPDLSSLSLAVSRSTDELEIIDEYIKENGFGLDGGQPGPGEGLPRLVSRGAASLSTVTLGPVAPPATPPPWGCPLGRLVSPAPGPGPQPHLVITEQPKQRGMRFRYECEGRSAGSILGESSTEASKTLPAIELRDCGGLREVEVTACLVWKDWPHRVHPHSLVGKDCTDGICRVRLRPHVSPRHSFNNLGIQCVRKKEIEAAIERKIQLGIDPYNAGSLKNHQEVDMNVVRICFQASYRDQQGQMRRMDPVLSEPVYDKKSTNTSELRICRINKESGPCTGGEELYLLCDKVQKEDISVVFSRASWEGRADFSQADVHRQIAIVFKTPPYEDLEIVEPVTVNVFLQRLTDGVCSEPLPFTYLPRDHDSYGVDKKRKRGMPDVLGELNSSDPHGIESKRRKKKPAILDHFLPNHGSGPFLPPSALLPDPDFFSGTVSLPGLEPPGGPDLLDDGFAYDPTAPTLFTMLDLLPPAPPHASAVVCSGGAGAVVGETPGPEPLTLDSYQAPGPGDGGTASLVGSNMFPNHYREAAFGGGLLSPGPEAT"}},
  "key": {"[1]": {"test_system": "PD-L1 mRNA", "experiment": "PD-L1 mRNA expression by RT-qPCR in PC-3 cells treated with chemicals", "type": "cell-based, human", "conditions": "24 hours; for PD-L1 mRNA expression: RT-qPCR; for palbociclib-induced elevation of PD-L1: co-treatment with palbociclib", "procedure": "FIGS. 1A-K. RB suppresses PD-L1 mRNA expression. (A) PC-3 cell were treated with indicated chemicals for 24 hours. Cells were harvested for RT-qPCR. All data were shown as mean values±SD (n=3). * P<0.05, ** P<0.01, *** P<0.001. (B) PC-3 cells were infected with lentivirus expressing control or CDK4 and CDK6-specific shRNAS. 72 hours after infection, cells were harvested for RT-qPCR. All data were shown as mean values±SD (n=3). *** P<0.001. (C-F) PC-3 cells were infected with lentivirus expressing control or RB1-specific shRNAs. 48 hours after infection, PD-L1 protein levels were determined by western blotting (C), RT-qPCR (D), FACS (E), and IFC (F). All data were shown as mean values±SD (n=3). * P<0.05, ** P<0.01, *** P<0.001. (G) PD-L1 mRNA levels were determined by RT-qPCR in SKO and DKO mouse prostate tumor cells. All data were shown as mean values±SD (n=3). * P<0.05, ** P<0.01, *** P<0.001. (H-J) SKO (H), DKO (I), and Rb^−/−PrE (J) cells were treated with palbociclib for 24 hours. Cells were harvested for RT-qPCR. All data were shown as mean values±SD (n=3). * P<0.05, ** P<0.01, *** P<0.001. (K) The putative copy-number calls for RB1 were determined using GISTC 2.0, and the mRNA expression for CD274(PD-L1) was measured by log 2(RPKM), here RPKM stands for Reads Per Kilobase of transcript per Million mapped reads. […] The nonparametric Mann-Whitney U test was used for the statistical test.\nFIGS. 8A-D. (A) PC-3, MIA PaCa-2, H1299, SK-Hep1, and PTEN-CaP8 cells were treated with different doses of palbociclib for 24 hours. Cells were harvested for RT-qPCR. All data were shown as mean values±SD (n=3). * P<0.05, ** P<0.01. (B) PC-3 cell were treated with indicated chemicals for 24 hours. Cells were harvested for RT-qPCR. All data were shown as mean values±SD (n=3). Ns, not significant, * P<0.05, ** P<0.01. (C, D) PC-3 cells were infected with lentivirus expressing control shRNA or RB1-specific shRNA. 24 hours after puromycin selection, cells were treated with or without Helenalin (2 μM) for 24 hours. Cells were harvested for western blotting analysis (C) and RT-qPCR (D). All data were shown as mean values±SD (n=3). Ns, not significant, *** P<0.001.\nFIGS. 13A-F. (A, B) PC-3 cells were treated with or without gamma irradiation (IR) (12 Gy). 24 hours post treatment, cells were treated with or without Helenalin (2 μM). 24 hours after treatment, cells were harvested for western blotting analysis (A) and RT-qPCR analysis (B). All data were shown as mean values±SD (n=3). “ns”=not significant, *** P<0.001. (C) PTEN-CaP8 cells were infected with lentivirus expression Tsin control or Tsin-RL S249D/T252D peptide. 72 hours post infection, cell were harvested for western blotting analysis. (D, E) PTEN-CaP8 cells were infected with lentivirus expression Tsin control or Tsin-RL S249D/T252D peptide. 72 hours post infection, cells were treated with or without gamma irradiation (12 Gy) for 48 hours. Cells were harvested for MTS assay (D) and RT-qPCR (E). All data were shown as mean values±SD (n=3). “ns”=not significant, ** P<0.01; *** P<0.001. (F) Schematic diagram depicting the treatment plan for mice bearing subcutaneous PTEN-CaP8 tumors.\nTotal RNA was isolated using TRIzol reagent (Thermo Fisher Scientific). The NanoDrop 2000 spectrophotometer (Thermo Fisher Scientific) was used to assess RNA yield and quality. RNA was reversely transcribed using Superscript reverse transcriptase (Thermo Fisher Scientific) following manufacturer's instructions. Quantitative real-time PCR was performed by mixing cDNA, gene-specific primers, and IQ SYRB Green Supermix and detected by iCycler QTX detection system (Bio-Rad). The 2-ΔCt method was used to quantitate fold changes by normalizing to GAPDH. Primers for RT-qPCR are provided Table 4."}, "[2]": {"target": "T1, retinoblastoma protein RB (endogenous) (human, UniProt P06400 2-928)", "T1 construct": "Endogenous protein of cell lysates, phosphorylation state as in the cells; also called RB1; endogenous RB", "T1 sequence (looked up)": "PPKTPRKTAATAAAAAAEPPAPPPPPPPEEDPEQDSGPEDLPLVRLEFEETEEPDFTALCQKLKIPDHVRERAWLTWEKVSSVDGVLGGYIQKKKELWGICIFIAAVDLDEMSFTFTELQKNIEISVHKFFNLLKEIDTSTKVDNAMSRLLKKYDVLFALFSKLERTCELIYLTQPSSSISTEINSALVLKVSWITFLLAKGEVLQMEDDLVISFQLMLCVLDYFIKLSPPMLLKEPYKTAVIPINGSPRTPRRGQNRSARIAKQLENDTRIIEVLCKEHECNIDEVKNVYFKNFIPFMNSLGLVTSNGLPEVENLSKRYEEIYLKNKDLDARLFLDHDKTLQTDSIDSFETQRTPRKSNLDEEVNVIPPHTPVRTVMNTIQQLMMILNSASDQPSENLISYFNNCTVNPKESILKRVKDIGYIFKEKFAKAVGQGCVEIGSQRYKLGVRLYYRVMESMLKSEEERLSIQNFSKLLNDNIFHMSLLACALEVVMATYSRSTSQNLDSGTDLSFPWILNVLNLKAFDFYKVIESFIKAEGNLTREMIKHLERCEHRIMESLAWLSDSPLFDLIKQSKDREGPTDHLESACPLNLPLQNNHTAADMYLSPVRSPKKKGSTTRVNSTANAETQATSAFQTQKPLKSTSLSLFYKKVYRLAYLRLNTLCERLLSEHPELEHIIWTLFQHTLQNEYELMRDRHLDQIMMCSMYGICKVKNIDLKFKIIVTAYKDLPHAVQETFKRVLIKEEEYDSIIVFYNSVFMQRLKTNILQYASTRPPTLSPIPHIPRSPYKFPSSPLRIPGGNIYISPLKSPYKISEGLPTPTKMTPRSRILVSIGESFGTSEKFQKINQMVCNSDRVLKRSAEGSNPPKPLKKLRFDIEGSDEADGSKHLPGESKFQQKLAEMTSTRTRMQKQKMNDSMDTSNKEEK", "experiment": "co-IP of endogenous proteins in PC-3 cells (FIGS. 2A and 18A)"}},
  "note": "“Also recorded” adds a separate entry of the source.",
  "data": [
    {"molecule": "C=C1C(=O)O[C@@H]2C[C@@H](C)[C@@H]3C=CC(=O)[C@@]3(C)[C@@H](O)[C@H]12", "note": "[helenalin]", "values": [
      {"measurement": "RB knockdown-induced PD-L1 upregulation", "setting": "[1]; PC-3 cells with RB1 shRNA, Helenalin 2 μM", "result": "completely blocked; also recorded: inhibited"},
      {"measurement": "gamma irradiation-induced PD-L1 expression", "setting": "[1]; PC-3 cells, 12 Gy, Helenalin 2 μM", "result": "abrogated"},
      {"measurement": "PD-L1 mRNA expression", "setting": "[1]; PC-3 cells", "result": "decreased"},
      {"measurement": "palbociclib-induced elevation of PD-L1", "setting": "[1]; PC-3 cells", "result": "completely abolished"}
    ]},
    {"molecule": "CN1CC[C@H](c2c(O)cc(O)c3c(=O)cc(-c4ccccc4Cl)oc23)[C@H](O)C1", "note": "[flavopiridol]", "values": [
      {"measurement": "PD-L1 mRNA expression", "setting": "[1]; PC-3 cells", "result": "dramatic downregulation"},
      {"measurement": "palbociclib-induced elevation of PD-L1", "setting": "[1]; PC-3 cells", "result": "completely abolished"}
    ]},
    {"molecule": "CC[C@H](CO)Nc1nc(NCc2ccccc2)c2ncn(C(C)C)c2n1", "note": "[roscovitine]", "values": [
      {"measurement": "PD-L1 mRNA expression", "setting": "[1]; PC-3 cells", "result": "dramatic downregulation"}
    ]},
    {"molecule": "Cc1sc2c(c1C)C(c1ccc(Cl)cc1)=N[C@@H](CC(=O)OC(C)(C)C)c1nnc(C)n1-2", "note": "[JQ1]", "values": [
      {"measurement": "PD-L1 mRNA expression", "setting": "[1]; PC-3 cells", "result": "dramatic downregulation"}
    ]},
    {"molecule": "B1", "values": [
      {"measurement": "binding result", "setting": "[2]", "result": "no binding"}
    ]},
    {"molecule": "B2", "values": [
      {"measurement": "binding result", "setting": "[2]", "result": "no binding"}
    ]},
    {"molecule": "B3", "values": [
      {"measurement": "binding result", "setting": "[2]", "result": "no binding"}
    ]}
  ]
}
